Results taken from publication PMC9719519, “Non-classical ferroptosis inhibition by a small molecule targeting PHB2” (Nature Communications, 2022).

Legend:
Assay in all cases: biochemical
Set-up in all cases: Eurofins recombinant human kinase profiling, remaining kinase activity as % of control, 10 uM ATP
Details in all cases: ATP 10 uM; read-out: %Ctrl@10 μM
CDKL1(h) = CDKL1(h) (Homo sapiens, UniProt Q00532)
In short: (§1)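 Activity measured in a commercial panel of 401 recombinant human protein kinases run as a kinase profiling service.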

Abl (Q252H) (h) = molecular target: T1, Abl (Q252H) (h) (Homo sapiens, UniProt P00519, Q252H)
T1 construct: gene ABL1
In short: as §1

CDK2/cyclinA(h) = CDK2/cyclinA(h) (Homo sapiens, UniProt P24941)
In short: as §1

SAPK4(h) = molecular target: T2, SAPK4(h) (Homo sapiens, UniProt O15264)
T2 construct: gene MAPK13
In short: as §1

ICK(h) = molecular target: T3, ICK(h) (Homo sapiens, UniProt Q9UPZ9)
T3 construct: gene CILK1
In short: as §1

CHK2(R145W)(h) = molecular target: T4, CHK2(R145W)(h) (Homo sapiens, UniProt O96017, R145W)
T4 construct: gene CHEK2
In short: as §1

NEK3(h) = NEK3(h) (Homo sapiens, UniProt P51956)
In short: as §1

EGFR(T790M)(h) = EGFR(T790M)(h) (Homo sapiens, UniProt P00533, T790M)
In short: as §1

ZAK(h) = molecular target: T5, ZAK(h) (Homo sapiens, UniProt Q9NYL2)
T5 construct: gene MAP3K20
In short: as §1

CLK2(h) = CLK2(h) (Homo sapiens, UniProt P49760)
In short: as §1

PrKX(h) = PrKX(h) (Homo sapiens, UniProt P51817)
In short: as §1

BRK(h) = molecular target: T6, BRK(h) (Homo sapiens, UniProt Q13882)
T6 construct: gene PTK6
In short: as §1

Rsk2(h) = molecular target: T7, Rsk2(h) (Homo sapiens, UniProt P51812)
T7 construct: gene RPS6KA3
In short: as §1

JNK1α1(h) = molecular target: T8, JNK1α1(h) (Homo sapiens, UniProt P45983)
T8 construct: gene MAPK8; isoform alpha1
In short: as §1

CaMKIδ(h) = molecular target: T9, CaMKIδ(h) (Homo sapiens, UniProt Q8IU85)
T9 construct: gene CAMK1D
In short: as §1

Src(1-530)(h) = molecular target: T10, Src(1-530)(h) (Homo sapiens, UniProt P12931)
T10 construct: residues 1-530
In short: as §1

CDK17/cyclinY(h) = CDK17/cyclinY(h) (Homo sapiens, UniProt Q00537)
In short: as §1

Arg(h) = molecular target: T11, Arg(h) (Homo sapiens, UniProt P42684)
T11 construct: gene ABL2
In short: as §1

KDR(h) = KDR(h) (Homo sapiens, UniProt P35968)
In short: as §1

CaMKI(h) = molecular target: T12, CaMKI(h) (Homo sapiens, UniProt Q14012)
T12 construct: gene CAMK1
In short: as §1

PKCδ(h) = molecular target: T13, PKCδ(h) (Homo sapiens, UniProt Q05655)
T13 construct: gene PRKCD
In short: as §1

CK1γ2(h) = molecular target: T14, CK1γ2(h) (Homo sapiens, UniProt P78368)
T14 construct: gene CSNK1G2
In short: as §1

T9 sequence (Q8IU85 whole entry): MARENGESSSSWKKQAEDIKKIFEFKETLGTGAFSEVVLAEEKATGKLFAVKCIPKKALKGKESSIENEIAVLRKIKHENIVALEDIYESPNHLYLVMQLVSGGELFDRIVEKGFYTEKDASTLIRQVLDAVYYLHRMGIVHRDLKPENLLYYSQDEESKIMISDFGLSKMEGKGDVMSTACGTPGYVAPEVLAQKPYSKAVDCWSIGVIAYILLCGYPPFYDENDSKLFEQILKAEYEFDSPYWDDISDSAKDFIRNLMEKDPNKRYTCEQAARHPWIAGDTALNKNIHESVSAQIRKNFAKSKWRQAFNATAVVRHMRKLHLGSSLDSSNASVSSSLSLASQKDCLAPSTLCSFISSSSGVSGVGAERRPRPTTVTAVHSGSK
Sequence of EGFR(T790M)(h) (P00533 whole entry T790M): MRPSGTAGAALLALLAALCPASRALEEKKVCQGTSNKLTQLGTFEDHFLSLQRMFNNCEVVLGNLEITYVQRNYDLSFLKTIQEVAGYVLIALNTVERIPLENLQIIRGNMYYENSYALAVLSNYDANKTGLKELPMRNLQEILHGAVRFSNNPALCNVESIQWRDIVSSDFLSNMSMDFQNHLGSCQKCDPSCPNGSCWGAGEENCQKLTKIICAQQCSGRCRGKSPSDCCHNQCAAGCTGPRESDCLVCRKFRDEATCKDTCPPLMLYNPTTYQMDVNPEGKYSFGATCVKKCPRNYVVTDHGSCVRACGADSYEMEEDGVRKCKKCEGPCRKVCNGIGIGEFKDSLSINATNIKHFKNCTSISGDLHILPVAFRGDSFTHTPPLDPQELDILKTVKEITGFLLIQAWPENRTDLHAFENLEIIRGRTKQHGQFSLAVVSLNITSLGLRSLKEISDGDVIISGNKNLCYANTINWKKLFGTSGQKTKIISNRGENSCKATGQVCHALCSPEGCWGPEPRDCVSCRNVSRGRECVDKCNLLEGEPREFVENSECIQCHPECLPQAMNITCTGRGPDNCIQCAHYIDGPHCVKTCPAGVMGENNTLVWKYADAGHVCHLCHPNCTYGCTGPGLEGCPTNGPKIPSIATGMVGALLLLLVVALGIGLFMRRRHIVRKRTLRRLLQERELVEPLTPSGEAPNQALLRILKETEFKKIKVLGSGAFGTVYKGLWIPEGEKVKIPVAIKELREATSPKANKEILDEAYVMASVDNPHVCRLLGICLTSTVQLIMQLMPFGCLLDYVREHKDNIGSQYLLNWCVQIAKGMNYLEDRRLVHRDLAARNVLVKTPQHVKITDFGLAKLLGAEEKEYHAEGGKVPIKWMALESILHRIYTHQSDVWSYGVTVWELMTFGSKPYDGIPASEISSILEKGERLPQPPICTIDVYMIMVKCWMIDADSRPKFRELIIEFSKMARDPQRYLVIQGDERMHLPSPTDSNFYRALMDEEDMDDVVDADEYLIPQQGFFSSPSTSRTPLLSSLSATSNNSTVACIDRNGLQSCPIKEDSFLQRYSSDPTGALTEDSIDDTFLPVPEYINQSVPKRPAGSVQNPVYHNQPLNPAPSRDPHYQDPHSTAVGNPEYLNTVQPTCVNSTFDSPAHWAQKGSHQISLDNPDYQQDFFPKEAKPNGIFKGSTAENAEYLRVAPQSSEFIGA
T4 sequence (O96017 whole entry R145W): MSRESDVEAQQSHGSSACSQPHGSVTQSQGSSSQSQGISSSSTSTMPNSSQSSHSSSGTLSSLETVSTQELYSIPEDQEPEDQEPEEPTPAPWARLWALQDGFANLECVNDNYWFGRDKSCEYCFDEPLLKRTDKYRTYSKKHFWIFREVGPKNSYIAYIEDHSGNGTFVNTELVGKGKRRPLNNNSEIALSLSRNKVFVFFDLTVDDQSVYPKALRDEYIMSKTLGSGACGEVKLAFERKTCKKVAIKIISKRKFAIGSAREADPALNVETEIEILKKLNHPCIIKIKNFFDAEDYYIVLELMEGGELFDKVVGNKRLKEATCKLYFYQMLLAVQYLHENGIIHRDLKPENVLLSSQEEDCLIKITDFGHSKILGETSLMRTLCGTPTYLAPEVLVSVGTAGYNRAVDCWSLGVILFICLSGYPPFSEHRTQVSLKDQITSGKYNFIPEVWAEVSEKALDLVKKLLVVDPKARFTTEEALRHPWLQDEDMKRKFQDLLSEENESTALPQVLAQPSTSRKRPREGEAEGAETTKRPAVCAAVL
Sequence of NEK3(h) (P51956 whole entry): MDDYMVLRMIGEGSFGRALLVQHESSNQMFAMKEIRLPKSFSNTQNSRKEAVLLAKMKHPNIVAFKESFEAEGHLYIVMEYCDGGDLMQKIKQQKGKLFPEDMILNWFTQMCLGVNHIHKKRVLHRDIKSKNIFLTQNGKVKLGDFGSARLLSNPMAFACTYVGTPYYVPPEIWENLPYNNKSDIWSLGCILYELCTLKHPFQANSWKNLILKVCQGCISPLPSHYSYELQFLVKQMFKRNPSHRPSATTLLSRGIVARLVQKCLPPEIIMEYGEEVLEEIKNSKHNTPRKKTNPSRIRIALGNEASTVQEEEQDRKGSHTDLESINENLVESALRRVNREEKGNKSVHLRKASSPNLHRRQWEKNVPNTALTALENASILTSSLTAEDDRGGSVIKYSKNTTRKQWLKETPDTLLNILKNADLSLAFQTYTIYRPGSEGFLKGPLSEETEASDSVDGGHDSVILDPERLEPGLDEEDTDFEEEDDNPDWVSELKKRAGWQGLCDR
Sequence of CDKL1(h) (Q00532 whole entry): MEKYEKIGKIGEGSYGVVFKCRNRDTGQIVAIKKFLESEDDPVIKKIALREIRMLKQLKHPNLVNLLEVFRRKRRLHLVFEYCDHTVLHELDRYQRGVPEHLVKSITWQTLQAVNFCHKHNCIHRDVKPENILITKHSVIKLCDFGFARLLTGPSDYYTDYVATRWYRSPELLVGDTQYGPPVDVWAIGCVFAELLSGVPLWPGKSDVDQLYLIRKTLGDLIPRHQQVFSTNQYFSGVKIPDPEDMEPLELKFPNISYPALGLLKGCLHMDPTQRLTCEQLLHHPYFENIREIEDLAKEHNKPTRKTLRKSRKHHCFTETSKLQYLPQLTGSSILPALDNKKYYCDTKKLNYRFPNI
Sequence of PrKX(h) (P51817 whole entry): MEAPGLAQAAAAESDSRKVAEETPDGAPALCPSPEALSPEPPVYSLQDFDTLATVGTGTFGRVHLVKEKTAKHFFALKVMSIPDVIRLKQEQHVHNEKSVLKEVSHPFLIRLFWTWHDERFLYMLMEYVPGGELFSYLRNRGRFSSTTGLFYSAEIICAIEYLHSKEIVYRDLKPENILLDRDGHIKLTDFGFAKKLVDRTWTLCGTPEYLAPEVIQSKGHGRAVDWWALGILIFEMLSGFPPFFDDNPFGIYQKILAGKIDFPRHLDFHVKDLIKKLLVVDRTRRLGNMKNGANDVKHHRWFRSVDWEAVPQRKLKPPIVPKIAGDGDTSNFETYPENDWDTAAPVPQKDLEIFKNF
T12 sequence (Q14012 whole entry): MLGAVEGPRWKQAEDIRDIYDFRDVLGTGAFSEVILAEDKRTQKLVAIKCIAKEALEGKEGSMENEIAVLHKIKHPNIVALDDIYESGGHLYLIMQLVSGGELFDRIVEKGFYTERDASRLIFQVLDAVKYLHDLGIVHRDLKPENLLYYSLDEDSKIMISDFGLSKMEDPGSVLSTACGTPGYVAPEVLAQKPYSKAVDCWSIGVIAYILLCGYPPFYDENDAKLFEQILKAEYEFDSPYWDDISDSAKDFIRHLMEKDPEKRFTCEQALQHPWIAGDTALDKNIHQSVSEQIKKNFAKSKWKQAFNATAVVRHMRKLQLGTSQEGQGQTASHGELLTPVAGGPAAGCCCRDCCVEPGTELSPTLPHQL
T6 sequence (Q13882 whole entry): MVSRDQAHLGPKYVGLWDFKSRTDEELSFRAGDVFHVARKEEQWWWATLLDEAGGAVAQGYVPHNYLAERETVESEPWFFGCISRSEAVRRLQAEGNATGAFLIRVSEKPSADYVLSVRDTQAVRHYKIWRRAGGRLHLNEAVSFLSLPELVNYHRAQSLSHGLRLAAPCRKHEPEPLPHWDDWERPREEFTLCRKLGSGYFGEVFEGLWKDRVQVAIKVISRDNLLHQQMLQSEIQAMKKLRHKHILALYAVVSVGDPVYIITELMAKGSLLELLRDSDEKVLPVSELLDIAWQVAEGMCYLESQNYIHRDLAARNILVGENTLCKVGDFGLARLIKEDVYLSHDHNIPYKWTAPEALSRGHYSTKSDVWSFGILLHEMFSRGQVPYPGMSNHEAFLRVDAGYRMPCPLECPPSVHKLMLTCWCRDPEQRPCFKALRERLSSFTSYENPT
T13 sequence (Q05655 whole entry): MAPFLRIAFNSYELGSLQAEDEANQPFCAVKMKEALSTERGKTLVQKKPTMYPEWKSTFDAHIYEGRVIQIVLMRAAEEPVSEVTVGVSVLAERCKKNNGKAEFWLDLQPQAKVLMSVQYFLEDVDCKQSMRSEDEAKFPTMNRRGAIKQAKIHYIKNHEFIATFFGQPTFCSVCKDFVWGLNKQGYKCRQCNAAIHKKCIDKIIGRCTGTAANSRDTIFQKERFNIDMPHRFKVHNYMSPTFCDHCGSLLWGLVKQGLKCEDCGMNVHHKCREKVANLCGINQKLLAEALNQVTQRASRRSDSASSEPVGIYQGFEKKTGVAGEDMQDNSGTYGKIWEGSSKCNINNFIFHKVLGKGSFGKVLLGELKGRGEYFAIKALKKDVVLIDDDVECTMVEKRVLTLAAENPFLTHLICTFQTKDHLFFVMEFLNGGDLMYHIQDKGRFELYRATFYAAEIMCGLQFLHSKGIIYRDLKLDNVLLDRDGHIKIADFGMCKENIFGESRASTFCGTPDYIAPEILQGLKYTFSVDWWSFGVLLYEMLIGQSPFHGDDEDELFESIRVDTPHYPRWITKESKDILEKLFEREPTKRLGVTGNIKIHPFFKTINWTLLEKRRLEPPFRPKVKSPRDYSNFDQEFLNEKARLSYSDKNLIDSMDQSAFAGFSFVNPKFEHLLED

C1=C(c2nc(-c3cnn(C4CCNCC4)c3)cn3cc(-c4ccccc4)nc23)CCOC1 [YL-939]
remaining activity at 10 µM (CDKL1(h)): 96% | remaining activity at 10 µM (Abl (Q252H) (h)): 122% | remaining activity at 10 µM (CDK2/cyclinA(h)): 95% | remaining activity at 10 µM (SAPK4(h)): 100% | remaining activity at 10 µM (ICK(h)): 92% | remaining activity at 10 µM (CHK2(R145W)(h)): 98% | remaining activity at 10 µM (NEK3(h)): 102% | remaining activity at 10 µM (EGFR(T790M)(h)): 138% | remaining activity at 10 µM (ZAK(h)): 85% | remaining activity at 10 µM (CLK2(h)): 71% | remaining activity at 10 µM (PrKX(h)): 80% | remaining activity at 10 µM (BRK(h)): 109% | remaining activity at 10 µM (Rsk2(h)): 81% | remaining activity at 10 µM (JNK1α1(h)): 109% | remaining activity at 10 µM (CaMKIδ(h)): 90% | remaining activity at 10 µM (Src(1-530)(h)): 85% | remaining activity at 10 µM (CDK17/cyclinY(h)): 93% | remaining activity at 10 µM (Arg(h)): 108% | remaining activity at 10 µM (KDR(h)): 108% | remaining activity at 10 µM (CaMKI(h)): 81% | remaining activity at 10 µM (PKCδ(h)): 81% | remaining activity at 10 µM (CK1γ2(h)): 90%
